Measured values reported in EP4778929A1, “NOVEL TYPE I TOPOISOMERASE INHIBITOR, AND PREPARATION METHOD THEREFOR AND USE THEREOF” (priority 2023, dated 2025).
Read-outs that look alike come from different tables or passages of the source.

Key:
[1] = molecular target: T1, topoisomerase I (Topo I) (Homo sapiens, UniProt P11387); experiment: Topo I enzyme-inhibitory activity by agarose-gel electrophoresis (plasmid relaxation); type: biochemical
T1 sequence (P11387 1-765): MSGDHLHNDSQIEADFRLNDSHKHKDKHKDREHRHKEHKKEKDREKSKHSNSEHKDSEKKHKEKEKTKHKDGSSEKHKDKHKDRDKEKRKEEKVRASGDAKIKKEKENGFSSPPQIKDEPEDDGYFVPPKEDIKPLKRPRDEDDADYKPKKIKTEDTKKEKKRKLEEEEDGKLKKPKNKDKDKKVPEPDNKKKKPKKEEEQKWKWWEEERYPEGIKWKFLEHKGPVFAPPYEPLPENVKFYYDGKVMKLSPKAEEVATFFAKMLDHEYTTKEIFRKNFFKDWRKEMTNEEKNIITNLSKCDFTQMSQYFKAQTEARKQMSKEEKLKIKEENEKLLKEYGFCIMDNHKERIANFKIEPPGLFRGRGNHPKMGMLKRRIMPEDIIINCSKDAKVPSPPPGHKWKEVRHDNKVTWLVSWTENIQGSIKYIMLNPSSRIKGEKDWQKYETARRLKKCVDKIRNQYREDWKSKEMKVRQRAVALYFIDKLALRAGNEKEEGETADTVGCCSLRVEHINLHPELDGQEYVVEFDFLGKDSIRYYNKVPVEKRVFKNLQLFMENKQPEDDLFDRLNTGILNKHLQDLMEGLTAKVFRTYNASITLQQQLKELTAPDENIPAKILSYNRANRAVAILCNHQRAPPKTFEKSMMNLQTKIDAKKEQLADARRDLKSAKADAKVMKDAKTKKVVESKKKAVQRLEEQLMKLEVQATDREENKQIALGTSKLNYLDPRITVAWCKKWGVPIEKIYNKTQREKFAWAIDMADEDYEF
Source text: Test Example 1. Determination of Topo I Enzyme-Inhibitory Activity by Agarose-Gel Electrophoresis
Principle: Type-I topoisomerase (Topo I) relaxes positive and negative supercoils by introducing transient single-strand breaks and forming reversible cleavage complexes (Topo I-DNA covalent complexes). Gel electrophoresis can resolve DNA species of identical molecular weight but different topology: supercoiled plasmid migrates fastest, whereas the nicked, relaxed form moves more slowly. Quantifying the decrease in supercoiled DNA therefore provides a direct measure of Topo I activity.
Experimental Procedure: A 1× reaction buffer was prepared (20 mM Tris-HCl pH 7.5, 200 mM NaCl, 0.25 mM EDTA, 5 % (v/v) glycerol, 0.5 µg pNO1 plasmid substrate). Test compounds (5 % DMSO final) were added to the buffer, followed by Topo I enzyme (0.75 U per reaction). After gentle mixing, reactions were incubated at 37 °C for 30 min. Positive (enzyme + vehicle) and negative (no enzyme) controls were included in parallel. Reactions were terminated by adding STEB buffer and chloroform/iso-amyl alcohol (24:1, v/v), vortexed and centrifuged for 2 min. The aqueous (upper) phase was loaded onto a 1 % (w/v) agarose gel, electrophoresed for 1-2 h, stained with GelRed, and imaged under UV trans-illumination.
Data Analysis: Band intensities of supercoiled DNA were quantified with image-analysis software. Relaxation activity (%) was calculated as (Max-Sample)/ (Max-Min)*100%, where Max = intensity of the no-enzyme negative control, Min = intensity of the vehicle-only positive control, and Sample = intensity of the compound-treated lane. Dose-response data (compound concentration, X; relaxation activity %, Y) were fitted in Excel or GraphPad Prism 5.0 using the four-parameter logistic equation: Y=Bottom + (Top-Bottom)/(1+(IC50/X)[…]) to derive the IC50 value for each compound.
Table 1. Compound-mediated inhibition of topoisomerase I (Topo I) enzymatic activity

[2] = Pharmacokinetic study in mice, plasma concentrations by LC-MS/MS
Procedure: Test Example 3. Pharmacokinetic Study for Determining Compound Concentrations in Mice by LC-MS/MS
Principle: LC-MS/MS is used to quantify the plasma concentrations of the test article at successive time points, generating an in-vivo pharmacokinetic profile.
Procedure: The test compound was dissolved in DMSO to prepare a 10 mg/mL stock solution. This stock was further diluted to 1 mg/mL with a vehicle consisting of 10 % DMSO + 10 % Solutol HS-15 + 80 % saline. Male CD-1 mice (JH Laboratory Animal Co., LTD) were employed; six animals were assigned per compound group. […] Serial blood samples (~50 µL whole blood, K2EDTA anticoagulant) were collected at 0.083, 0.25, 0.5, 1, 2, 4, 8 and 24 h (three mice per time point in a crossover design). Blood was centrifuged at 6 000 g for 5 min at 4 °C; plasma was harvested and stored at -70 °C until analysis. Plasma drug concentrations were determined by LC-MS/MS.
Calibration Curve and QC Preparation: Working solutions were prepared by dilution with MeOH:H2O (1:1). For each calibration or QC level, 3 µL of working solution was spiked into 57 µL of blank mouse plasma.
Sample Processing: To 30 µL of plasma was added 200 µL of methanol containing the internal standard (propranolol, 40 ng mL^-1). After vortex-mixing for 1 min, the mixture was centrifuged at 12 000 rpm for 10 min. A 100 µL aliquot of the supernatant was transferred to a clean plate for injection.
Pharmacokinetic Analysis: Concentration-time data were analyzed with WinNonlin 8.2 using a non-compartmental approach to derive PK parameters including Cmax, Tmax, AUC and terminal elimination half-life (t1/2). AUC was calculated by the linear-up/log-down trapezoidal method. Table 3. Pk parameters of compounds

[3] = system: HCT116 cells; experiment: Inhibition of cell proliferation by CTG (CellTiter-Glo) luminescence assay; type: cell-based; settings: Homo sapiens, HCT-116; 72 h incubation, CellTiter-Glo; read-out: HCT116, IC50
Source text: Test Example 2. Determination of Compound-Mediated Inhibition of Cell Proliferation by CTG (CellTiter-Glo) Luminescence Assay
Principle: The Promega CellTiter-Glo™ luciferase reagent was used. Luciferase consumes ATP to generate light; metabolically active cells continuously produce ATP through respiration and other processes. After adding an equal volume of CellTiter-Glo™ reagent to the culture medium, the resulting luminescence is directly proportional to the ATP content, which in turn correlates with the number of viable cells. Thus, the assay quantifies compound-induced suppression of cell proliferation.
Experimental Procedure: HCT116 cells (ATCC) were revived in complete medium (McCoy's 5a + 10 % FBS). After two passages, exponentially growing cells were harvested, counted, and resuspended to the appropriate density. A 100 µL aliquot of cell suspension (2 000 cells per well) was seeded into 96-well plates and incubated overnight (37 °C, 5 % CO2, 100 % relative humidity). Test compounds were dissolved in DMSO to prepare 10 mM stock solutions and serially diluted 1:3 in DMSO to generate nine concentration steps. Each DMSO solution was further diluted 200-fold into medium; 25 µL of the resulting solutions were added to the cell plates (final DMSO concentration […]). After 72 h incubation (37 °C, 5 % CO2), 50 µL of CellTiter-Glo reagent was added per well. Plates were shaken gently, incubated for 30 min at room temperature in the dark, and luminescence was read on an EnVision multimode reader. Percent inhibition was calculated as: Inhibition % = (1−As/Ac) × 100, [formula] where As = signal from compound-treated wells and Ac = signal from DMSO-only control wells. Concentration-response data were fitted in Excel with the XLfit add-in using the four-parameter logistic equation: Y = Bottom + (Top−Bottom)/[1+((IC50/X))^(∧)HillSlope], [formula] to derive the IC50 value for each compound. Table 2. IC50 of compounds

[4] = 0.75 U Topo I, pNO1 plasmid, 37 °C, 30 min; compounds listed by group (Group A / Group B); read-out: inhibition of topoisomerase I (Topo I) enzymatic activity, IC50
[5] = read-out: inhibition of topoisomerase I (Topo I) enzymatic activity, IC50; 0.75 U Topo I, pNO1 plasmid, 37 °C, 30 min; compounds listed by group (Group A / Group B)
[6] = male, CD-1, mouse, po, 20 mg/kg
[7] = male, CD-1, mouse, po, 10 mg/kg

## CC[C@@]1(O)C(=O)OCc2c1cc1n(c2=O)Cc2c-1c(=O)c1cc(F)c([C@H](C)O)cc1n2C1CCCC1 (single isomer, unassigned) [Example 293]
[1]; [4]
  IC50: 0.2 to 0.5 µM

## CC[C@@]1(O)C(=O)OCc2c1cc1n(c2=O)Cc2c-1c(=O)c1cc(F)c([C@@H](C)O)cc1n2C1CCCC1 (single isomer, unassigned) [Example 294]
[1]; [4]
  IC50: 0.2 to 0.5 µM

## CC[C@@]1(O)C(=O)OCc2c1cc1n(c2=O)Cc2c-1c(=O)c1cc(F)ccc1n2CCNC1CC1 [Example 96, (S)-11-(2-(cyclopropylamino)ethyl)-4-ethyl-8-fluoro-4-hydroxy-1,12-dihydro-14H-pyrano[3,4:6,7]indolizino[2,1-b]quinoline-3,6,14 (4H,11H)-trione]
[1]; [5]
  IC50: < 0.2 µM

## CC[C@@]1(O)C(=O)OCc2c1cc1n(c2=O)Cc2c-1c(=O)c1cc(F)ccc1n2CCN(C)C1CC1 [Example 97, (S)-11-(2-(cyclopropyl(methyl)amino)ethyl)-4-ethyl-8-fluoro-4-hydroxy-1,12-dihydro-14H-pyrano[3,4:6,7]indolizino[2,1-b]quinoline-3,6,14(4H,11H)-trione]
[2]; mouse, in vivo
  bioavailability: 34.5%
[2]; mouse, in vivo, iv, 1 mg/kg
  AUC(0-t) at 24 h: 0.114 µg·h/mL
  Cmax: 0.256 µg/mL
  clearance: 8.76 L/h/kg
  half-life: 0.482 h
[2]; mouse, in vivo, po, 10 mg/kg
  AUC(0-t) at 24 h: 0.395 µg·h/mL
  Cmax: 0.131 µg/mL
  Tmax: 0.92 h
  half-life: 1.26 h

## CC[C@@]1(O)C(=O)OCc2c1cc1n(c2=O)Cc2c-1c(=O)c1cc3c(cc1n2CCN(C)C1CCCC1)OCO3 [Example 179]
[1]; [5]
  IC50: 0.2 to 0.5 µM

## CC[C@@]1(O)C(=O)OCc2c1cc1n(c2=O)Cc2c-1c(=O)c1cc(F)ccc1n2CCN1CCCC1 [Example 193]
[1]; [5]
  IC50: 0.2 to 0.5 µM

## CC[C@@]1(O)C(=O)OCc2c1cc1n(c2=O)Cc2c-1c(=O)c1cc(F)ccc1n2[C@@H]1CCN(CCO)C1 [Example 252, (S)-4-ethyl-8-fluoro-4-hydroxy-11-((R)-1-(2-hydroxyethyl)pyrrolidin-3-yl)-1,12-dihydro-14H-pyrano[3',4':6,7]indolizino[2,1-b]quinoline-3,6,14(4H,11H)-trione]
[2]; male, CD-1, mouse
  bioavailability: 43.1%
[2]; male, CD-1, mouse, iv, 2 mg/kg
  AUC(0-t): 0.674 µg·h/mL
  Cmax: 0.558 µg/mL
  clearance: 2.95 L/h/kg
  half-life: 1.17 h
[2]; [6]
  AUC(0-t): 2.82 µg·h/mL
  Cmax: 0.68 µg/mL
  Tmax: 1.33 h
  half-life: 5.75 h

## CC[C@@]1(O)C(=O)OCc2c1cc1n(c2=O)Cc2c-1c(=O)c1cc(F)ccc1n2[C@@H]1CCN(C2CCCC2)C1 [Example 257, (S)-4-ethyl-8-fluoro-4-hydroxy-11-((R)-1-cyclopentylpyrrolidin-3-yl)-1,12-dihydro-14H-pyrano[3',4':6,7]indolizino[2,1-b] quinoline-3,6,14(4H,11H)-trione]
[3]
  IC50: < 0.02 µM
[2]; male, CD-1, mouse
  bioavailability: 40.2%
[2]; male, CD-1, mouse, iv, 1 mg/kg
  AUC(0-t): 0.352 µg·h/mL
  Cmax: 0.635 µg/mL
  clearance: 2.84 L/h/kg
  half-life: 1.24 h
[2]; [7]
  AUC(0-t): 1.37 µg·h/mL
  Cmax: 0.528 µg/mL
  Tmax: 0.83 h
  half-life: 7.95 h

## CC[C@@]1(O)C(=O)OCc2c1cc1n(c2=O)Cc2c-1c(=O)c1cc(F)ccc1n2[C@@H]1CCN(CC2CC2)C1 [Example 259, (S)-11-((R)-1-(cyclopropylmethyl)pyrrolidin-3-yl)-4-ethyl-8-fluoro-4-hydroxy-1H-pyrano[3',4':6,7]indolizino[2,1-b]quinoline-3,6,14(4H,11H,12H)-trione]
[3]
  IC50: < 0.02 µM
[2]; male, CD-1, mouse
  bioavailability: 46.6%
[2]; male, CD-1, mouse, iv, 1 mg/kg
  AUC(0-t): 0.524 µg·h/mL
  Cmax: 0.497 µg/mL
  clearance: 1.91 L/h/kg
  half-life: 0.96 h
[2]; [7]
  AUC(0-t): 2.4 µg·h/mL
  Cmax: 1.23 µg/mL
  Tmax: 0.83 h
  half-life: 6.24 h

## CC[C@@]1(O)C(=O)OCc2c1cc1n(c2=O)Cc2c-1c(=O)c1cc(F)c(CO)cc1n2C1CCCC1 [Example 291, (S)-11-cyclopentyl-4-ethyl-8-fluoro-4-hydroxy-9-(hydroxymethyl)-1,12-dihydro-14H-pyrano[3,4:6,7]indolizino[2,1-b]quinoline-3,6,14(4H,11H)-trione]
[1]; [4]
  IC50: 0.2 to 0.5 µM

## CC[C@@]1(O)C(=O)OCc2c1cc1n(c2=O)Cc2c-1c(=O)c1cc(F)c(CC(C)O)cc1n2C1CCCC1 (stereo partly drawn) [Example 292, (4S)-11-cyclopentyl-4-ethyl-8-fluoro-4-hydroxy-9-(2-hydroxypropyl)-1,12-dihydro-14H-pyrano[3,4:6,7]indolizino[2,1-b]quinoline-3,6,14(4H,11H)-trione]
[1]; [4]
  IC50: 0.2 to 0.5 µM

## CCc1c2c(nc3ccc(O)cc13)-c1cc3c(c(=O)n1C2)COC(=O)[C@]3(O)CC [SN38]
[2]; mouse, iv, 1 mg/kg
  AUC(0-t) at 24 h: 0.103 µg·h/mL
  Cmax: 0.278 µg/mL
  clearance: 9.78 L/h/kg
  half-life: 0.566 h
[2]; mouse, po, 10 mg/kg
  AUC(0-t) at 24 h: 0.00023 µg·h/mL
  Cmax: 0.00187 µg/mL
